According to patent US7291486B2, “Genetically modified cells and methods for converting (R)-methylmalonyl CoA to (S)-methylmalonyl CoA” (KOSAN Biosciences, Inc., priority 1999, dated 2007):
Values belong to the molecule of their own block, whether it stands above or below them.

Columns and labels:
[1] = Stability of acyl-CoAs in TCA and mutase assay buffer (HPLC); assay type: physicochemical; conditions: mutase assay conditions, 30° C.
Method: To test whether acyl-CoAs degrade in TCA, the following tests were conducted. The CoA mix consisted of 1.6 mM each of malonyl-, methylmalonyl-, succinyl-, acetyl-, and propionyl-CoA, plus 0.5 mM CoA. An aliquot (10 μL) of this mix was added to 100 μL 10% TCA, 50 μL were immediately injected to the HPLC for CoA analysis, and the remainder was promptly frozen on dry ice. The frozen portion was then thawed and loaded immediately to the HPLC. Again, 10 μL of the CoA mix were added to 100 μL 10% TCA, 50 μL were left on ice for 15 minutes and then injected to the HPLC, the remainder was left at 4° C. overnight and injected to the HPLC the next morning. The area under each CoA peak was noted. This same procedure was followed but using a mixture of TCA and buffer A from the mutase assay.
The CoA analysis described here is carried out on cells which are lysed in 10% TCA. […] Thus, the CoAs are stable in TCA and in the mutase assay buffer after the cells are lysed or after the assays are completed, and prior to HPLC analysis.
Although the CoAs are stable in TCA and buffer at 4° C., they degraded at 30° C., the temperature at which the mutase assay was performed. In five minutes under the assay conditions, about 4% of the methylmalonyl-CoA hydrolyzed to CoA. […] Thus, the mutase assay is suboptimal for extremely quantitative results.

[2] = Spontaneous chemical epimerization between (R)- and (S)-mm-CoA; assay type: physicochemical; conditions: in 15 minutes
[3] = Epimerase assay coupled to transcarboxylase and malate dehydrogenase, crude E. coli extracts; assay type: biochemical; conditions: 30° C.
Method: Cells of strain BL2] (DE3) containing pET-epsherm, pET-epcoel, pET-epsub, or a control pET vector were grown overnight at 37° C. in 2 mL LB containing 100 μg/ml carbenicillin. The starter culture (250 μL) was used to inoculate 25 mL LB containing 100 μg/ml carbenicillin. The cultures were grown at 37° C. to an OD of approximately 0.4, then induced with IPTG to 1 mM final concentration and grown for an additional 3 hours at 30° C. The cells were collected by centrifugation at 4000 rpm for 10 minutes, and the pellets were stored at −80° C. prior to assay. […]
Epimerase activity was measured in crude extracts of E. coli harboring either pET-epsherm, pET-epcoel, pET-epsub, or a control pET vector. The epimerase assay couples transcarboxylase, which converts (S)-methylmalonyl-CoA into propionyl-CoA, to malate dehydrogenase, which converts NADH into NAD^+, producing a decrease in absorbance at 340 nm. […] When an extract containing epimerase is added to the assay, the (R)-isomer is converted to (S)—, resulting in a further decrease in absorbance. […]
The pellet from approximately 20 mL of culture was thawed and resuspended in 2 mL 1X assay buffer containing a protease inhibitor cocktail tablet. […] The reaction was initiated with (2R,2S)-methylmalonyl-CoA and the decrease in absorbance at 340 nm was monitored, reflecting the disappearance of the 2S isomer. […]

hydrolyzed to CoA ([1]; five minutes): about 4%
spontaneous chemical epimerization between (R)- and (S)-mm-CoA [2]: approximately 3%
Molecule: CC(C(=O)O)C(=O)SCCNC(=O)CCNC(=O)[C@H](O)C(C)(C)COP(=O)(O)OP(=O)(O)OC[C@H]1O[C@@H](n2cnc3c(N)ncnc32)[C@H](O)[C@@H]1OP(=O)(O)O (stereo partly shown) [methylmalonyl-CoA]

rate of hydrolysis relative to methylmalonyl-CoA [1]: comparable rate
Molecule: CC(C)(COP(=O)(O)OP(=O)(O)OC[C@H]1O[C@@H](n2cnc3c(N)ncnc32)[C@H](O)[C@@H]1OP(=O)(O)O)[C@@H](O)C(=O)NCCC(=O)NCCSC(=O)CCC(=O)O [succinyl-CoA]

B1: P. shermanii epimerase: methylmalonyl-CoA epimerase from Propionibacterium shermanii expressed in E. coli, SEQ ID NO: 2 (protein)
chain: MSNEDLFICIDHVAYACPDADEASKYYQETFGWHELHREENPEQGVVEIMMAPAAKLTEHMTQVQVMAPLNDESTVAKWLAKHNGRAGLHHMAWRVDDIDAVSATLRERGVQLLYDEPKLGTGGNRINFMHPKSGKGVLIELTQYPKN
modifications: Deduced amino acid sequence of the epimerase gene sequence
specific activity [3]: approximately 30 units/mg
